This passage reports IC50 results from patent US9884063B2, “Amido-substituted azole compounds” (Bayer Pharma Aktiengesellschaft, priority 2014, dated 2018).

In the test the target is T1, TNKS1 (Homo sapiens, UniProt O95271).
T1 sequence (O95271 1-1327): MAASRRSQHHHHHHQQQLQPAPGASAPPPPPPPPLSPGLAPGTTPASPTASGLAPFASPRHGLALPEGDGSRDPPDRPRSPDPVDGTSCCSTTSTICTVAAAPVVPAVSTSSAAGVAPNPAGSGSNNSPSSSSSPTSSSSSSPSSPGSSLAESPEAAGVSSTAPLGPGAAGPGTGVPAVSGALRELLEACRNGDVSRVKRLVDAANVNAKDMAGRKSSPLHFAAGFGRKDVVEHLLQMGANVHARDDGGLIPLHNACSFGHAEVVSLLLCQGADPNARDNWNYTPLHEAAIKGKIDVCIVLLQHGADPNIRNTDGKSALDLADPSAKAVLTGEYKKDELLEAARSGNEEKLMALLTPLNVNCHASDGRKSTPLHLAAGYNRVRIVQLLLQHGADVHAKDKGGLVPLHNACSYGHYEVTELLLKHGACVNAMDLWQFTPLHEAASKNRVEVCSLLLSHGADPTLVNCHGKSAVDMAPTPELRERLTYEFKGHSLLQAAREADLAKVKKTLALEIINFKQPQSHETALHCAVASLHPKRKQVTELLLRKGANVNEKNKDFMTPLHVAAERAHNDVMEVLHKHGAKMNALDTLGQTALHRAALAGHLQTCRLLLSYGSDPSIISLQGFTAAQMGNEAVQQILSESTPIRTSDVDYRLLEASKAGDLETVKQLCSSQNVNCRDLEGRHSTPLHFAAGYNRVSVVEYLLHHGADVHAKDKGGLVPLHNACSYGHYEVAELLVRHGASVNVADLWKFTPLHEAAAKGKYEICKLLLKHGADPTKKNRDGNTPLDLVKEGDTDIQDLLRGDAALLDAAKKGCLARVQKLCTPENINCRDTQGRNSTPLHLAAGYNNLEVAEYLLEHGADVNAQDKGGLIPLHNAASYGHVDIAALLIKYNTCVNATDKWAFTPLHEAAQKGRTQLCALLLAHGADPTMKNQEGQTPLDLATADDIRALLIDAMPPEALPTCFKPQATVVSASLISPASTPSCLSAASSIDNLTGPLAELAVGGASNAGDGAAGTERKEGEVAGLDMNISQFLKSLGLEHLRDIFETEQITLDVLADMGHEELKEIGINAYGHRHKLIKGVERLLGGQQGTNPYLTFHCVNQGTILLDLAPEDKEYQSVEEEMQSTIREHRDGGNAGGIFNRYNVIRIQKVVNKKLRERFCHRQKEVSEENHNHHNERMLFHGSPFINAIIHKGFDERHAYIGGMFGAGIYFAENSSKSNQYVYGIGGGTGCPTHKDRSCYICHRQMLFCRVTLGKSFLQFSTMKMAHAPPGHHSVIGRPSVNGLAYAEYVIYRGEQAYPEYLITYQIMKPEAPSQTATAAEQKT
Nature of the test: Modified TNKS1 Assay 2 (auto-parsylation, [3H]-NAD+ SPA). It counts as biochemical. The note with it: 6 nM TNKS1, 96 well. As for the experimental part: The potency of selected compounds according to the invention was assessed applying an modified in vitro inhibition assay. Here, the TNKS1 catalyzed NAD^+-dependent ribosylation of the enzyme itself (auto-parsylation) was detected using [^3H]-NAD^+ as substrate and applying the scintillation proximity assay (SPA) method to detect tritium-labeled, parsylated TNKS1. The intensity of the readout signal is proportional to the incorporated [^3H]-NAD^+. Inhibition of TNKS1 leads to a decreased incorporation of [^3H]-NAD^+ and consequently to a lower readout signal intensity. The concentration of a test compound which inhibits the enzyme activity by 50% (corresponds to half of the normed readout signal intensity) is reported as IC50.
The assay was conducted in a 96 well MTP format with the identical TNKS1 enzyme sample and NAD^+ sample as in the histone ribosylation assay with the following modifications: TNKS1 enzyme sample was diluted with a modified assay buffer (50 mM MES pH 7.0, 1 mM DTT, 0.01% Triton X-100) to a final concentration of 6 nM TNKS1 and 10×NAD^+ solution was diluted with the modified assay buffer (s. above) to a final 0.445×NAD^+ solution doped with 100 Bq/ul [^3H]-NAD^+[Catalog #NET443H050UC, Perkin Elmer, Waltham, Mass., USA]. Substrate solution (10 ul) was incubated with different test compound concentrations (2.5 ul in 10% DMSO in modified assay buffer) or control (2.5 ul 10% DMSO in modified assay buffer only) and enzyme (10 ul) over night at room temperature. Incorporated tritium was measured after addition of 50 ul SPA beads (1 mg/ml) [Catalog #RPNQ0095 20 mg/ml, Perkin Elmer, Waltham, Mass., USA; diluted 1:10 with Dulbecco's phosphate buffered saline, PBS Catalog #D8537, Sigma-Aldrich, Steinheim, Germany] and detection of the photon emission with a beta count plate reader [Wallac MicroBeta®, Perkin Elmer, Waltham, Mass., USA].
In general, IC50 refers to the midpoint of a concentration-inhibition curve. The low end stands for greater potency in that assay, the high end for weaker potency in that assay. As to `CC(C)NC(=O)c1nc[nH]c1C(=O)Nc1ccc(NC(=O)c2ccc(F)cc2Cl)cc1` [Example 10, N^5-{4-[(2-chloro-4-fluorobenzoyl)amino]phenyl}-N^4-isopropyl-1H-imidazole-4,5-dicarboxamide], inhibition was half-maximal at 290 nM (IC50). This counts as sub-micromolar.
`CN1CCN(C(C)(C)CNC(=O)c2[nH]cnc2C(=O)Nc2ccc(NC(=O)c3ccc(F)cc3Cl)cc2)CC1` [Example 187, N^4-{4-[(2-chloro-4-fluorobenzoyl)amino]phenyl}-N^5-[2-methyl-2-(4-methylpiperazin-1-yl)propyl]-1H-imidazole-4,5-dicarboxamide] had an IC50 of 50 nM.
With `CC(C)(CN1CCCCC1)NC(=O)c1[nH]cnc1C(=O)Nc1ccc(NC(=O)c2ccc(F)cc2Cl)cc1` [Example 184, N^4-{4-[(2-chloro-4-fluorobenzoyl)amino]phenyl}-N^5-[2-methyl-1-(piperidin-1-yl)propan-2-yl]-1H-imidazole-4,5-dicarboxamide], half-maximal inhibition (IC50) was put at 30 nM.
The same measure for `CCNC(=O)c1nc[nH]c1C(=O)Nc1ccc(NC(=O)c2ccccc2S(C)(=O)=O)cc1` [Example 257, N^4-ethyl-N^5-(4-{[2-(methylsulfonyl)benzoyl]amino}phenyl)-1H-imidazole-4,5-dicarboxamide]: 7800 nM.
For `CNC(=O)c1nc[nH]c1C(=O)Nc1ccc(NC(=O)c2ccc(O)cc2Cl)cc1` [Example 122, N^5-{4-[(2-chloro-4-hydroxybenzoyl)amino]phenyl}-N^4-methyl-1H-imidazole-4,5-dicarboxamide] the value was 950 nM.
In the case of `CNC(=O)c1nc[nH]c1C(=O)Nc1ccc(NC(=O)c2ccc(F)cc2Cl)c(C)c1` [Example 5, N^5-{4-[(2-chloro-4-fluorobenzoyl)amino]-3-methylphenyl}-N^4-methyl-1H-imidazole-4,5-dicarboxamide], inhibition was half-maximal at 320 nM (IC50).
Consider `CN(C)CCNC(=O)c1[nH]cnc1C(=O)Nc1ccc(NC(=O)c2ccc(F)cc2Br)cc1` [Example 217, N^4-{4-[(2-bromo-4-fluorobenzoyl)amino]phenyl}-N^5-[2-(dimethylamino)ethyl]-1H-imidazole-4,5-dicarboxamide], for which inhibition was half-maximal at 10 nM (IC50). This IC50 lies about 32-fold lower than the previous one.
As to `CC(C)(CN1CCCCC1)NC(=O)c1[nH]cnc1C(=O)Nc1ccc(NC(=O)c2ccccc2Cl)cc1` [Example 171, N^4-{4-[(2-chlorobenzoyl)amino]phenyl}-N^5-[2-methyl-1-(piperidin-1-yl)propan-2-yl]-1H-imidazole-4,5-dicarboxamide], 200 nM corresponded to half-maximal inhibition (IC50). This IC50 is about 20-fold higher than that of the compound before.
In turn, `O=C(Nc1ccc(NC(=O)c2nc[nH]c2C(=O)NC2CCOC2)cc1)c1ccc(F)cc1Cl` (centres unmarked) [Example 236, N^4-{4-[(2-chloro-4-fluorobenzoyl)amino]phenyl}-N^5-(tetrahydrofuran-3-yl)-1H-imidazole-4,5-dicarboxamide] displayed an IC50 of 30 nM.
Consider `CC(C)(C)CNC(=O)c1[nH]cnc1C(=O)Nc1ccc(NC(=O)c2ccccc2Cl)cc1` [Example 148, N^4-{4-[(2-chlorobenzoyl)amino]phenyl}-N^5-(2,2-dimethylpropyl)-1H-imidazole-4,5-dicarboxamide], for which the IC50 was 1300 nM.
Consider `CNC(=O)c1nc[nH]c1C(=O)Nc1ccc(NC(=O)c2ccc(F)cc2Cl)nc1` [Example 16, N^5-{6-[(2-chloro-4-fluorobenzoyl)amino]pyridin-3-yl}-N^4-methyl-1H-imidazole-4,5-dicarboxamide], for which the midpoint of inhibition, the IC50, lay at 30 nM.
The compound `CC(C)(CNC(=O)c1[nH]cnc1C(=O)Nc1ccc(NC(=O)c2ccccc2Cl)cc1)N1CCCCC1` [Example 165, N^4-{4-[(2-chlorobenzoyl)amino]phenyl}-N^5-[2-methyl-2-(piperidin-1-yl)propyl]-1H-imidazole-4,5-dicarboxamide] came in with an IC50 of 30 nM. This counts as double-digit nanomolar.
`O=C(Nc1ccc(NC(=O)c2nc[nH]c2C(=O)NCCCN2CCOCC2)cc1)c1ccc(F)cc1` [Example 206, N^4-{4-[(4-fluorobenzoyl)amino]phenyl}-N^5-[3-(morpholin-4-yl)propyl]-1H-imidazole-4,5-dicarboxamide] gave an IC50 of 4100 nM.
In the case of `CNC(=O)c1nc[nH]c1C(=O)Nc1ccc(NC(=O)c2ncccc2Cl)cc1` [Example 247, N^5-(4-{[(3-chloropyridin-2-yl)carbonyl]amino}phenyl)-N^4-methyl-1H-imidazole-4,5-dicarboxamide], half-maximal inhibition (IC50) was put at 910 nM.
The compound `CNC(=O)c1ncoc1C(=O)Nc1ccc(NC(=O)c2ccc(F)cc2Cl)cc1` [Example 11, N^5-{4-[(2-chloro-4-fluorobenzoyl)amino]phenyl}-N^4-methyl-1,3-oxazole-4,5-dicarboxamide] yielded a 50% inhibitory concentration (IC50) of 150 nM.
The same measure for `O=C(Nc1ccc(NC(=O)c2nc[nH]c2C(=O)NCCF)cc1)c1ccc(F)cc1Cl` [Example 173, N^4-{4-[(2-chloro-4-fluorobenzoyl)amino]phenyl}-N^5-(2-fluoroethyl)-1H-imidazole-4,5-dicarboxamide]: 30 nM.
Regarding `CCS(=N)(=O)c1ccc(C(=O)Nc2ccc(NC(=O)c3[nH]cnc3C(=O)NC)cc2)c(Cl)c1` (centres unmarked) [Example 255, N^5-(4-{[2-chloro-4-(S-ethylsulfonimidoyl)benzoyl]amino}phenyl)-N^4-methyl-1H-imidazole-4,5-dicarboxamide], the IC50 is 680 nM. Against the preceding compound, the IC50 is about 23-fold higher.
`CCS(=N)(=O)c1ccc(C(=O)Nc2ccc(NC(=O)c3[nH]cnc3C(=O)NCCN3CCCCC3)cc2)c(Cl)c1` (centres unmarked) [Example 256, N^5-(4-{[2-chloro-4-(S-ethylsulfonimidoyl)benzoyl]amino}phenyl)-N^4-[2-(piperidin-1-yl)ethyl]-1H-imidazole-4,5-dicarboxamide] gave an IC50 of 9 nM.
`CNC(=O)c1nc[nH]c1C(=O)Nc1ccc(NC(=O)c2ccc(N(C)C)cc2Cl)cc1` [Example 4, N^5-(4-{[2-chloro-4-(dimethylamino)benzoyl]amino}phenyl)-N^4-methyl-1H-imidazole-4,5-dicarboxamide] returned an IC50 of 80 nM.
With `NC(=O)c1nc[nH]c1C(=O)Nc1ccc(NC(=O)c2ccc(F)cc2Cl)cc1` [Example 121], half-maximal inhibition (IC50) was put at 40 nM. This IC50 is about 2-fold lower than that of the compound before.
Turning to `O=C(Nc1ccc(NC(=O)c2[nH]cnc2C(=O)NCC(F)(F)F)cc1)c1ccc(F)cc1Cl` [Example 30, N^4-{4-[(2-chloro-4-fluorobenzoyl)amino]phenyl}-N^5-(2,2,2-trifluoroethyl)-1H-imidazole-4,5-dicarboxamide], 50 nM corresponded to half-maximal inhibition (IC50).
In turn, `CNC(=O)c1nc[nH]c1C(=O)Nc1ccc(NC(=O)c2ccc(C)cc2Cl)cc1` [Example 244, N^5-{4-[(2-chloro-4-methylbenzoyl)amino]phenyl}-N^4-methyl-1H-imidazole-4,5-dicarboxamide] had an IC50 of 40 nM.
For `CC1CCN(CCNC(=O)c2nc[nH]c2C(=O)Nc2ccc(NC(=O)c3ccc(F)cc3Cl)cc2)CC1` [Example 126, N^5-{4-[(2-chloro-4-fluorobenzoyl)amino]phenyl}-N^4-[2-(4-methylpiperidin-1-yl)ethyl]-1H-imidazole-4,5-dicarboxamide] the value was 10 nM.
